{"source": "patent US20010049373A1", "about": "“Materials and methods for killing nematodes and nematode eggs” (priority 2000, published 2001)", "key": {"C. elegans": {"test_system": "C. elegans", "experiment": "C. elegans nematode activity assay, 2-fold dilutions from 140 μM, visual evaluation at Day 4 (Example 3)", "type": "in vivo", "design": "key: Dead: only stiff L1s (no movement); Dead (L4): worms are dead, but at a later larval stage; majority of worms are L1 (based on size); majority of worms are L2 (based on size); majority of worms are L3 (based on size); majority of worms are L4 (based on size); AD: majority of worms are adult; #AD: 5 adult worms or less; B!: sterile (0-25 progeny); B: low broodsize (25-100 progeny); ˜B: moderate broodsize (100-250 progeny); <: reduced broodsize (250-500 progeny); OK: no effect (˜1000+ progeny)"}, "tomatoes or cucumbers": {"test_system": "tomatoes or cucumbers", "details": "rates of up to 10 kg/ha; cited from earlier work"}, "[1]": {"test_system": "root-knot nematode, Meloidogyne incognita", "details": "cited from earlier work"}, "[2]": {"test_system": "Colorado potato beetle, potato tuberworm, beet armyworm, diamondback moth, gypsy moth, and the European corn borer", "details": "cited from earlier work"}}, "data": [{"molecule": "O=C(NCC1CCN(C(=O)NCCC(c2ccccc2)c2ccccc2)CC1)c1cc(F)c(F)cc1F", "note": "[AKC 116]", "values": [{"measurement": "visual evaluation of viability", "setting": "C. elegans; 1.09 μM", "result": "OK (no effect (˜1000+ progeny))"}, {"measurement": "visual evaluation of viability", "setting": "C. elegans; 2.2 μM", "result": "OK (no effect (˜1000+ progeny))"}, {"measurement": "visual evaluation of viability", "setting": "C. elegans; 4.4 μM", "result": "OK (no effect (˜1000+ progeny))"}, {"measurement": "visual evaluation of viability", "setting": "C. elegans; 8.8 μM", "result": "B (low broodsize (25-100 progeny))"}, {"measurement": "visual evaluation of viability", "setting": "C. elegans; 17.5 μM", "result": "B! (sterile (0-25 progeny))"}, {"measurement": "visual evaluation of viability", "setting": "C. elegans; 35 μM", "result": "L3"}]}, {"molecule": "O=C(NCC1CCN(C(=O)NCCC(c2ccccc2)c2ccccc2)CC1)c1ccc(F)cc1F", "note": "[AKC 117]", "values": [{"measurement": "visual evaluation of viability", "setting": "C. elegans; 1.09 μM", "result": "OK (no effect (˜1000+ progeny))"}, {"measurement": "visual evaluation of viability", "setting": "C. elegans; 2.2 μM", "result": "OK (no effect (˜1000+ progeny))"}, {"measurement": "visual evaluation of viability", "setting": "C. elegans; 4.4 μM", "result": "< (reduced broodsize (250-500 progeny))"}, {"measurement": "visual evaluation of viability", "setting": "C. elegans; 8.8 μM", "result": "B (low broodsize (25-100 progeny))"}, {"measurement": "visual evaluation of viability", "setting": "C. elegans; 17.5 μM", "result": "B! (sterile (0-25 progeny))"}, {"measurement": "visual evaluation of viability", "setting": "C. elegans; 35 μM", "result": "L3"}]}, {"molecule": "O=C(NCC1CCN(C(=O)NCCC(c2ccccc2)c2ccccc2)CC1)c1cc(F)cc(F)c1", "note": "[AKC 118]", "values": [{"measurement": "visual evaluation of viability", "setting": "C. elegans; 1.09 μM", "result": "OK (no effect (˜1000+ progeny))"}, {"measurement": "visual evaluation of viability", "setting": "C. elegans; 2.2 μM", "result": "OK (no effect (˜1000+ progeny))"}, {"measurement": "visual evaluation of viability", "setting": "C. elegans; 4.4 μM", "result": "˜B (moderate broodsize (100-250 progeny))"}, {"measurement": "visual evaluation of viability", "setting": "C. elegans; 8.8 μM", "result": "B (low broodsize (25-100 progeny))"}, {"measurement": "visual evaluation of viability", "setting": "C. elegans; 17.5 μM", "result": "L4/AD/B!"}, {"measurement": "visual evaluation of viability", "setting": "C. elegans; 35 μM", "result": "L3"}, {"measurement": "visual evaluation of viability", "setting": "C. elegans; 140 μM", "result": "L2"}]}, {"molecule": "NCc1ccc(-c2ccccc2)cc1", "note": "[AKC 138]", "values": [{"measurement": "visual evaluation of viability", "setting": "C. elegans; 1.09 μM", "result": "OK (no effect (˜1000+ progeny))"}, {"measurement": "visual evaluation of viability", "setting": "C. elegans; 2.2 μM", "result": "OK (no effect (˜1000+ progeny))"}, {"measurement": "visual evaluation of viability", "setting": "C. elegans; 4.4 μM", "result": "OK (no effect (˜1000+ progeny))"}, {"measurement": "visual evaluation of viability", "setting": "C. elegans; 8.8 μM", "result": "˜B (moderate broodsize (100-250 progeny))"}, {"measurement": "visual evaluation of viability", "setting": "C. elegans; 17.5 μM", "result": "L2"}, {"measurement": "visual evaluation of viability", "setting": "C. elegans; 35 μM", "result": "L1"}, {"measurement": "visual evaluation of viability", "setting": "C. elegans; 70 μM", "result": "L1"}, {"measurement": "visual evaluation of viability", "setting": "C. elegans; 140 μM", "result": "L1"}]}, {"molecule": "Cc1ccc2c(Cl)cc(Cl)c(O)c2n1", "note": "[AKC 141]", "values": [{"measurement": "visual evaluation of viability", "setting": "C. elegans; 1.09 μM", "result": "OK (no effect (˜1000+ progeny))"}, {"measurement": "visual evaluation of viability", "setting": "C. elegans; 2.2 μM", "result": "OK (no effect (˜1000+ progeny))"}, {"measurement": "visual evaluation of viability", "setting": "C. elegans; 4.4 μM", "result": "OK (no effect (˜1000+ progeny))"}, {"measurement": "visual evaluation of viability", "setting": "C. elegans; 8.8 μM", "result": "OK (no effect (˜1000+ progeny))"}, {"measurement": "visual evaluation of viability", "setting": "C. elegans; 17.5 μM", "result": "< (reduced broodsize (250-500 progeny))"}, {"measurement": "visual evaluation of viability", "setting": "C. elegans; 35 μM", "result": "L1"}, {"measurement": "visual evaluation of viability", "setting": "C. elegans; 70 μM", "result": "L1"}, {"measurement": "visual evaluation of viability", "setting": "C. elegans; 140 μM", "result": "L1"}]}, {"molecule": "CC[C@H](C)[C@H]1O[C@]2(CC(O)[C@@H]1C)C[C@@H]1C[C@@H](C/C=C(\\C)[C@@H](OC3CC(OC)C(OC4CC(OC)C(O)C(C)O4)C(C)O3)[C@@H](C)/C=C/C=C3\\CO[C@@H]4[C@H](O)C(C)=C[C@@H](C(=O)O1)[C@]34O)O2", "note": "(stereo partly drawn) [Avermectin B2a]", "values": [{"measurement": "toxicity to tomatoes or cucumbers", "setting": "tomatoes or cucumbers", "result": "not toxic"}, {"measurement": "activity against the root-knot nematode", "setting": "[1]; Meloidogyne incognita", "result": "active"}, {"measurement": "potency relative to commercial contact nematicides", "setting": "[1]; incorporated into soil at 0.16-0.25 kg/ha", "result": "10-30 times"}]}, {"molecule": "Avermectin B1", "values": [{"measurement": "effect on insect pests", "setting": "[2]", "result": "effective"}]}]}
